Data as given in patent publication EP3095787A1, “[…] ACTIVE COMPOUNDS AS DAG-LIPASE INHIBITORS” (Universiteit Leiden, priority 2015, dated 2016).

Tests used:
FAAH = biological target: T1, FAAH (Mus musculus, UniProt O08914); assay: Gel based competitive ABPP selectivity assay with TAMRA-FP in mouse brain proteome (FAAH band); assay type: biochemical; conditions: 10 µM inhibitor; TAMRA-FP 500 nM; mouse brain proteome; vehicle set to 100%
T1 construct: For gel based ABPP experiments mouse brain proteome (2.0 mg/mL, 20 µL) was preincubated; from tissue; host or cells: mouse brain proteome
T1 sequence (O08914 1-579): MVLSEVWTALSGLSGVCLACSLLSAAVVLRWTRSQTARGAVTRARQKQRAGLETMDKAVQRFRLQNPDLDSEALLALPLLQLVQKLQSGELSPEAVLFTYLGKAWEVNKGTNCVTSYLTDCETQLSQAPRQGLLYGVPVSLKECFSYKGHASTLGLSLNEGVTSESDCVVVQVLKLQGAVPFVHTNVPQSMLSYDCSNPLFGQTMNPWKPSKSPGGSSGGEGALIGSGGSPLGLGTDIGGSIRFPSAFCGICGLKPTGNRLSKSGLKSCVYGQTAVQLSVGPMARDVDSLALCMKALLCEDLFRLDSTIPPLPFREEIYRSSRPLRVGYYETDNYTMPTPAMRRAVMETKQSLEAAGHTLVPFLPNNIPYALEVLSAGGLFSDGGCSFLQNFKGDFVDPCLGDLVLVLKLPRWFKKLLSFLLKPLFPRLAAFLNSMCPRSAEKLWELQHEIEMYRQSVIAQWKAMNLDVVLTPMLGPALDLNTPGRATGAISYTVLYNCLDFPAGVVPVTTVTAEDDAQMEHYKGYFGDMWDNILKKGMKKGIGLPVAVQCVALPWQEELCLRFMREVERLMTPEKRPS
Method: (§1) For gel based ABPP experiments mouse brain proteome (2.0 mg/mL, 20 µL) was preincubated for 30 min with vehicle (DMSO) or compound to be tested in 0.5 µL DMSO at rt. And subsequently treated with 500 nM (final concentration) TAMRA-FP (TAMRA-FP was bought at Thermo Fischer) for 15 minutes at rt. The reactions were quenched with 10 µL standard 3 x SDS page sample buffer. The samples were directly loaded and resolved on SDS page gel (10 % acrylamide). The gels were scanned with a ChemiDoc MP sytem (Biorad, Cy 3 settings, 605/50 filter) and analyzed using Image Lab 4.1.
The percentage effect on FAAH was determined by measuring the integrated optical intensity of the band corresponding to FAAH (∼ 63 kD for mouse) using Image lab software. This activity was corrected for the total protein loading per lane as determined by coomassie staining and imaging with a ChemiDoc™ MP sytem (Biorad) followed by determination of the integrated optical intensity per lane by using Image Lab 4.1 software. The intensity of the protein bands from the samples treated with vehicle was set to 100%. […] N/A means less than 50% probe displacement at 10 µM inhibitor concentration.

hDAGL-α [1] = biological target: T2, hDAGL-α (Homo sapiens, UniProt Q9Y4D2); assay: Biochemical hDAGL-α activity assay (PNP-butyrate hydrolysis, 96 well plate); parameters: expressed in transfected cells; host or cells: HEK293T (transient), membrane fraction; conditions: PNP-butyrate 0.3 mM, membranes of HEK293T cells transfected with hDAGL-α; for IC50: read-out: DAGL-α Activity assay pIC50 (converted)
T2 sequence (Q9Y4D2 1-1042): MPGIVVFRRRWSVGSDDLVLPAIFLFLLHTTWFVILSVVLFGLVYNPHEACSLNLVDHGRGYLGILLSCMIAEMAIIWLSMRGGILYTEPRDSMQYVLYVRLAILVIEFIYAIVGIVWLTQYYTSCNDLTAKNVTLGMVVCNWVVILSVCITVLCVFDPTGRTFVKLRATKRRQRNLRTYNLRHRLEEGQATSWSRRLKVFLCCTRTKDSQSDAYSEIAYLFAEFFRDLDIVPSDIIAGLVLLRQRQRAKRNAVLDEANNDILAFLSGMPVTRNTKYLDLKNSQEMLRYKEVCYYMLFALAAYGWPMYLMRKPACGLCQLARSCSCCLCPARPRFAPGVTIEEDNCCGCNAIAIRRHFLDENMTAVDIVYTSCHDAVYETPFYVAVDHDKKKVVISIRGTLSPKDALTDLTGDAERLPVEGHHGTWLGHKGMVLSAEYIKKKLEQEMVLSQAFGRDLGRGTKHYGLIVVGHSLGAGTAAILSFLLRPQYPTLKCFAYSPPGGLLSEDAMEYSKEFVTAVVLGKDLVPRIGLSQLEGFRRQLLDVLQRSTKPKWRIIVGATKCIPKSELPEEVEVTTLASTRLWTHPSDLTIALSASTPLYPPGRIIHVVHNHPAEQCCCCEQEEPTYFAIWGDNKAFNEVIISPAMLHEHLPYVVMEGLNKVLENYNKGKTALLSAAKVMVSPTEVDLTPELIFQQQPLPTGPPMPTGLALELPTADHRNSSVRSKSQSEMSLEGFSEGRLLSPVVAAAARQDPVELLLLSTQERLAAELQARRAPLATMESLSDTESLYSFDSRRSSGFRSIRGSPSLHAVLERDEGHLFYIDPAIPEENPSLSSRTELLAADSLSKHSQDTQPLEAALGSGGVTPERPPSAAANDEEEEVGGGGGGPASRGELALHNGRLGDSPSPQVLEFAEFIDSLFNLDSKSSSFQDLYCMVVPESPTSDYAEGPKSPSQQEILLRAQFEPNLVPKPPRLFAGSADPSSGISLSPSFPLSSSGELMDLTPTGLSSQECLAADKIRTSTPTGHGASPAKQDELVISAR
Method: The biochemical hDAGL-α activity assay is based on the hydrolysis of para-nitrophenylbutyrate (PNP-butyrate) by membrane preparations from HEK293T cells transiently transfected with hDAGL-α. 200 µL reactions were performed in flat bottom Greiner 96-wells plates in a 50 mM pH 7.2 Hepes buffer. Membrane protein fractions from HEK293T cells transiently transfected with hDAGL-α (0.05 µg/µL final concentration) were used as hDAGL-α source. Compounds to be tested were introduced in 5 µL DMSO. The mixtures were incubated for 30 minutes before 5.0 µL 12 mM PNP-butyrate (final concentration 0.3 mM) in DMSO was added (final DMSO concentration 5.0%). Kinetics were followed immediately after addition of PNP-butyrate on a plate reader (TECAN GENios® microplate reader), by measuring the OD420 every 60 seconds, for 20 minutes at 37°C. The slope of the linear region from 5-15 minutes was determined, and all experiments were performed at N = 2, n = 2 for experimental measurements and N = 2, n = 4 for controls.
Data analysis: Z'-factor of each plate was determined for the validation of each experiment, using the following formula Z' = 1-3(σpc + σnc)/(µpc - µnc). The slope from 5-15 minutes of the positive control (pc: hDAGL-α, DMSO), and the negative control (nc: Mock, DMSO) was used. Plates were accepted for further analysis when Z' > 0.6. Kinetic measurements were corrected for the average absorption of the negative control (mock, DMSO). The slope of the linear region from 5-15 minutes was determined. The average, standard deviation (SD) and standard error of mean (SEM) were calculated and normalized to the corrected positive control. Data was exported to Graphpad Prism 5.0 for the calculation of the pIC50 using a nonlinear dose-response analysis.

hDAGL-α [2] = biological target: T2, hDAGL-α; assay: Mode of action (reversibility) experiment: size exclusion chromatography, then MB064 labeling; assay type: biochemical; parameters: expressed in transfected cells; conditions: pre-incubation at IC80 concentration; remaining activity visualized with MB064; n=3
Method: To determine the mode of action (reversible versus irreversible) of the inventive compounds, an experiment in which human DAGL-α membranes were pre-incubated at the IC80 concentration of compound 25 or the irreversible DAGL inhibitor KT-109 was performed.

serine hydrolases = assay: Comparative and competitive gel ABPP selectivity in mouse brain membrane proteome (TAMRA-FP and MB064); assay type: biochemical; conditions: 1 µM; including ABHD6 and ABHD12
Method: as §1
To investigate the selectivity of compound 25 in the mouse brain proteome comparative and competitive ABPP was used with a broad-spectrum FP-based probe (TAMRA-FP) and the tailored DAGL-α ABP MB064. As a reference the widely used β-lactone-based DAGL-inhibitors THL and OMDM-188, two broad-spectrum covalent and irreversible serine hydrolase inhibitors, were firstly tested.

IC50 (hDAGL-α [1])	Compound	FAAH ABPP (10 µm) % Eff. (FAAH)	further results
1.41 nM	Cc1ccc(-c2cc(F)c3nc(C(=O)CCCCCc4ccccc4)oc3c2)cc1 [Compound 32, 1-(4-fluoro-6-(p-tolyl)benzo[d]oxazol-2-yl)-6-phenylhexan-1-one]	N/A (N/A means less than 50% probe displacement at 10 µM inhibitor concentration)	
5.01 nM	O=C(CCCCCc1ccccc1)c1nc2c(F)cc(-c3ccc(F)cc3)cc2o1 [Compound 30, 1-(4-fluoro-6-(4-fluorophenyl)benzo[d]oxazol-2-yl)-6-phenylhexan-1-one]	N/A (N/A means less than 50% probe displacement at 10 µM inhibitor concentration)	
5.13 nM	Cc1ccc(-c2cnc3nc(C(=O)CCc4ccc(Oc5ccccc5)cc4)oc3c2)cc1 [Compound 28, 3-(4-phenoxyphenyl)-1-(6-(p-tolyl)oxazolo[4,5-b]pyridin-2-yl)propan-1-one]	N/A (N/A means less than 50% probe displacement at 10 µM inhibitor concentration)	
0.851 nM	Cc1ccc(-c2cnc3nc(C(=O)CCc4ccc(Oc5ccc(C(F)(F)F)cn5)cc4)oc3c2)cc1 [Compound 29, 1-(6-(p-Tolyl)oxazolo[4,5-b]pyridin-2-yl)-3-(4-((5-(trifluoromethyl)pyridin-2-yl)oxy)phenyl)propan-1-one]	N/A (N/A means less than 50% probe displacement at 10 µM inhibitor concentration)	
1.32 nM	Cc1ccccc1-c1cc(F)c2nc(C(=O)CCCCCc3ccccc3)oc2c1 [Compound 33, 1-(4-fluoro-6-(o-tolyl)benzo[d]oxazol-2-yl)-6-phenylhexan-1-one]	N/A (N/A means less than 50% probe displacement at 10 µM inhibitor concentration)	

Continued, compound first:

Compound	IC50 (hDAGL-α [1])	FAAH ABPP (10 µm) % Eff. (FAAH)	further results
O=C(N1CCCCC1Cc1ccccc1)n1cc(-c2ccc(-c3ccccc3)cc2)nn1 (stereo not shown) [KT-109, reference compound]			recovery of DAGL-α activity after size exclusion chromatography (hDAGL-α [2]): No recovery of DAGL-α activity
1-(4-fluoro-6-(2-fluorophenyl)benzo[d]oxazol-2-yl)-6-phenylhexan-1-one [Compound 31]		N/A (N/A means less than 50% probe displacement at 10 µM inhibitor concentration)	DAGL-α Activity assay pIC50 (hDAGL-α [1]): 8.6
Cc1ccc(-c2cnc3nc(C(=O)CCc4cccc(Oc5ccccc5)c4)oc3c2)cc1 [Compound 27, 3-(3-Phenoxyphenyl)-1-(6-(p-tolyl)oxazolo[4,5-b]pyridin-2-yl)propan-1-one]	3.72 nM	N/A (N/A means less than 50% probe displacement at 10 µM inhibitor concentration)	
CCCCCCCCCCC[C@@H](C[C@@H]1OC(=O)[C@H]1CCCCCC)OC(=O)[C@@H](NC=O)[C@@H](C)CC [OMDM-188, reference compound]			number of serine hydrolases whose labeling is blocked (serine hydrolases): at least 4
CCCCCCCCCCC[C@@H](C[C@@H]1OC(=O)[C@H]1CCCCCC)OC(=O)[C@H](CC(C)C)NC=O [THL, Tetrahydrolipstatin, reference compound]			number of serine hydrolases whose labeling is blocked (serine hydrolases): at least 4
Cc1ccc(-c2cnc3nc(C(=O)CCc4ccccc4Oc4ccccc4)oc3c2)cc1 [Compound 26, 3-(2-phenoxyphenyl)-1-(6-(p-tolyl)oxazolo[4,5-b]pyridin-2-yl)propan-1-one]	8.32 nM	N/A (N/A means less than 50% probe displacement at 10 µM inhibitor concentration)	
